Reference: the supplement of paper PMC11061612

Columns and labels:
Capivasertib = compound: C1CN(CCC1(C(=O)N[C@@H](CCO)C2=CC=C(C=C2)Cl)N)C3=NC=NC4=C3C=CN4 [Capivasertib]; conditions: max 10 µM
Summary of the method: (§1)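 After 24 hours at 37°C and 5% CO2 in 1536-well plates holding 7.5 μl of DMEM/F12 or RPMI with 10% FBS, cancer cell lines were dosed for 72 hours, with final DMSO typically 0.2%. Viability came from CellTiter-Glo 2.0 luminescence, scaled between the means of blank wells and DMSO wells. A non-linear mixed effects model fitted a two-parameter logistic curve to each dose response to give the single-agent IC50.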

AZD1775 = compound: C=CCn1c(=O)c2cnc(Nc3ccc(N4CCN(C)CC4)cc3)nc2n1-c1cccc(C(C)(C)O)n1 [AZD1775]; conditions: max 3 µM
Summary of the method: as §1

Trametinib = compound: CC(=O)Nc1cccc(-n2c(=O)n(C3CC3)c(=O)c3c(Nc4ccc(I)cc4F)n(C)c(=O)c(C)c32)c1 [Trametinib]; conditions: max 1 µM
Summary of the method: as §1

Palbociclib = compound: CC(=O)c1c(C)c2cnc(Nc3ccc(N4CCNCC4)cn3)nc2n(C2CCCC2)c1=O [Palbociclib]; conditions: max 10 µM
Summary of the method: as §1

AZD1390 = compound: CC(C)n1c(=O)n(C)c2cnc3cc(F)c(-c4ccc(OCCCN5CCCCC5)nc4)cc3c21 [AZD1390]; conditions: max 0.3 µM
Summary of the method: as §1

Venetoclax = compound: CC1(C)CCC(CN2CCN(c3ccc(C(=O)NS(=O)(=O)c4ccc(NCC5CCOCC5)c([N+](=O)[O-])c4)c(Oc4cnc5[nH]ccc5c4)c3)CC2)=C(c2ccc(Cl)cc2)C1 [Venetoclax]; conditions: max 1 µM
Summary of the method: as §1

Dasatinib = compound: CC1=C(C(=CC=C1)Cl)NC(=O)C2=CN=C(S2)NC3=CC(=NC(=N3)C)N4CCN(CC4)CCO [Dasatinib]; conditions: max 2 µM
Summary of the method: as §1

SG3199 = compound: CC1=CN2[C@@H](C1)C=NC3=CC(=C(C=C3C2=O)OC)OCCCCCOC4=C(C=C5C(=C4)N=C[C@@H]6CC(=CN6C5=O)C)OC [SG3199]; conditions: max 0.001 µM
Summary of the method: as §1

AZD2811 = compound: CCN(CCO)CCCOc1ccc2c(Nc3cc(CC(=O)Nc4cccc(F)c4)[nH]n3)ncnc2c1 [AZD2811]; conditions: max 1 µM
Summary of the method: as §1

SN-38 = compound: CCc1c2c(nc3ccc(O)cc13)-c1cc3c(c(=O)n1C2)COC(=O)[C@]3(O)CC [SN-38]; conditions: max 0.3 µM
Summary of the method: as §1

AZD0156 = compound: CN(C)CCCOc1ccc(-c2ccc3ncc4c(c3c2)n(C2CCOCC2)c(=O)n4C)cn1 [AZD0156]; conditions: max 3 µM
Summary of the method: as §1

AZD4320 = compound: CN(CC[C@H](CSC1=CC=CC=C1)NC2=C(C=C(C=C2)S(=O)(=O)NC(=O)C3=CC=C(C=C3)N4CCC(CC4)[C@H](C5=CC=CC=C5C6=CC=C(C=C6)Cl)O)S(=O)(=O)C(F)(F)F)CCO [AZD4320]; conditions: max 1 µM
Summary of the method: as §1

Alisertib = compound: COc1cc(Nc2ncc3c(n2)-c2ccc(Cl)cc2C(c2c(F)cccc2OC)=NC3)ccc1C(=O)O [Alisertib]; conditions: max 10 µM
Summary of the method: as §1

Gefitinib = compound: COc1cc2ncnc(Nc3ccc(F)c(Cl)c3)c2cc1OCCCN1CCOCC1 [Gefitinib]; conditions: max 10 µM
Summary of the method: as §1

Prexasertib = compound: COc1cccc(OCCCN)c1-c1cc(Nc2cnc(C#N)cn2)n[nH]1 [Prexasertib]; conditions: max 1 µM
Summary of the method: as §1

Doxorubicin = compound: COc1cccc2c1C(=O)c1c(O)c3c(c(O)c1C2=O)C[C@@](O)(C(=O)CO)C[C@@H]3O[C@H]1C[C@H](N)[C@H](O)[C@H](C)O1 [Doxorubicin]; conditions: max 1 µM
Summary of the method: as §1

AZD5153 = compound: COc1nnc2ccc(N3CCC(c4ccc(OCCN5CCN(C)C(=O)[C@H]5C)cc4)CC3)nn12 [AZD5153]; conditions: max 1 µM
Summary of the method: as §1

Lapatinib = compound: CS(=O)(=O)CCNCc1ccc(-c2ccc3ncnc(Nc4ccc(OCc5cccc(F)c5)c(Cl)c4)c3c2)o1 [Lapatinib]; conditions: max 10 µM
Summary of the method: as §1

AZD8186 = compound: C[C@@H](Nc1cc(F)cc(F)c1)c1cc(C(=O)N(C)C)cc2c(=O)cc(N3CCOCC3)oc12 [AZD8186]; conditions: max 3 µM
Summary of the method: as §1

Crizotinib = compound: C[C@@H](Oc1cc(-c2cnn(C3CCNCC3)c2)cnc1N)c1c(Cl)ccc(F)c1Cl [Crizotinib]; conditions: max 10 µM
Summary of the method: as §1

Savolitinib = compound: C[C@@H](c1ccc2nccn2c1)n1nnc2ncc(-c3cnn(C)c3)nc21 [Savolitinib]; conditions: max 1 µM
Summary of the method: as §1

AZD6738 = compound: C[C@@H]1COCCN1C2=NC(=NC(=C2)C3(CC3)[S@](=N)(=O)C)C4=C5C=CNC5=NC=C4 [AZD6738]; conditions: max 10 µM
Summary of the method: as §1

AZD5991 = compound: Cc1c2c(nn1C)CSCc1cc(n(C)n1)CSc1cc(c3ccccc3c1)OCCCc1c(C(=O)O)n(C)c3c-2c(Cl)ccc13 [AZD5991]; conditions: max 1 µM
Summary of the method: as §1

AZD7648 = compound: Cc1cc2ncnn2cc1Nc1ncc2c(n1)n(C1CCOCC1)c(=O)n2C [AZD7648]; conditions: max 10 µM
Summary of the method: as §1

Taselisib = compound: Cc1nc(-c2cn3c(n2)-c2ccc(-c4cnn(C(C)(C)C(N)=O)c4)cc2OCC3)n(C(C)C)n1 [Taselisib]; conditions: max 10 µM
Summary of the method: as §1

Selumetinib = compound: Cn1cnc2c(F)c(Nc3ccc(Br)cc3Cl)c(C(=O)NOCCO)cc21 [Selumetinib]; conditions: max 10 µM
Summary of the method: as §1

Olaparib = compound: O=C(c1cc(Cc2n[nH]c(=O)c3ccccc23)ccc1F)N1CCN(C(=O)C2CC2)CC1 [Olaparib]; conditions: max 10 µM
Summary of the method: as §1

| Cell Line | IC50, cell viability 72 h (Capivasertib) | IC50, cell viability 72 h (AZD1775) | IC50, cell viability 72 h (Trametinib) | IC50, cell viability 72 h (Palbociclib) | IC50, cell viability 72 h (AZD1390) | IC50, cell viability 72 h (Venetoclax) | IC50, cell viability 72 h (Dasatinib) | IC50, cell viability 72 h (SG3199) | IC50, cell viability 72 h (AZD2811) | IC50, cell viability 72 h (SN-38) | IC50, cell viability 72 h (AZD0156) | IC50, cell viability 72 h (AZD4320) | IC50, cell viability 72 h (Alisertib) | IC50, cell viability 72 h (Gefitinib) | IC50, cell viability 72 h (Prexasertib) | IC50, cell viability 72 h (Doxorubicin) | IC50, cell viability 72 h (AZD5153) | IC50, cell viability 72 h (Lapatinib) | IC50, cell viability 72 h (AZD8186) | IC50, cell viability 72 h (Crizotinib) | IC50, cell viability 72 h (Savolitinib) | IC50, cell viability 72 h (AZD6738) | IC50, cell viability 72 h (AZD5991) | IC50, cell viability 72 h (AZD7648) | IC50, cell viability 72 h (Taselisib) | IC50, cell viability 72 h (Selumetinib) | IC50, cell viability 72 h (Olaparib) |
| --- | --- | --- | --- | --- | --- | --- | --- | --- | --- | --- | --- | --- | --- | --- | --- | --- | --- | --- | --- | --- | --- | --- | --- | --- | --- | --- | --- |
| 42-MG-BA (Glioblastoma) | 2250 nM | 1050 nM | > 1000 nM | > 10000 nM | > 300 nM | > 1000 nM | 54.6 nM | > 1 nM | > 1000 nM | 7.39 nM | > 3000 nM | > 1000 nM | 8550 nM | > 10000 nM | 25.3 nM | 163 nM | 401 nM | > 10000 nM | 2530 nM | > 10000 nM | > 1000 nM | 8570 nM | 299 nM | > 10000 nM | 627 nM | > 10000 nM | > 10000 nM |
| AGS (Gastric Carcinoma) | > 10000 nM | 455 nM | 11.9 nM | > 10000 nM | > 300 nM | > 1000 nM | > 2000 nM | > 1 nM | > 1000 nM | 22.6 nM | > 3000 nM | > 1000 nM | > 10000 nM | > 10000 nM | 839 nM | 151 nM | 251 nM | > 10000 nM | > 3000 nM | > 10000 nM | > 1000 nM | 4930 nM | > 1000 nM | > 10000 nM | 577 nM | 767 nM | > 10000 nM |
| COLO-205 (Colorectal Carcinoma) | > 10000 nM | > 3000 nM | 6.16 nM | 7970 nM | > 300 nM | > 1000 nM | > 2000 nM | > 1 nM | 116 nM | > 300 nM | > 3000 nM | > 1000 nM | 743 nM | > 10000 nM | 782 nM | 518 nM | 499 nM | > 10000 nM | > 3000 nM | 4110 nM | > 1000 nM | > 10000 nM | > 1000 nM | > 10000 nM | 4250 nM | 302 nM | > 10000 nM |
